Key:
GLP-1R [1] = molecular target: T1, GLP-1R (Homo sapiens, UniProt P43220); assay: Hierarchical / k-means / fuzzy clustering of GLP-1R agonist signaling profiles (z-scored Emax and EC50, cluster centers)
Description: Using ebBRET, we extended our pathway profiling to endosomes, the Golgi apparatus and the endoplasmic reticulum. […] In short, positive k-means cluster centers were indicative of high potency or efficacy in a specific pathway and compartment, whereas negative k-means cluster centers could be interpreted as pathways that were underrepresented or not activated by a given drug cluster (Fig. 6c).
Efficacy and potency were extracted from concentration-response curves and aggregated before k-means clustering. b Hierarchical clustering of GLP-1R agonists based on signaling neighborhood profiles. c Cluster centers of distinct drug clusters identified by k-means clustering. Defining cluster features are listed by rank order, and the top and bottom five features are highlighted for each cluster.
represented as z-scores. Pathways that were not activated by GLP-1R upon exposure to ligand
according to efficacy or potency, compartments, and pathways. Pathways that were not activated
by any drug were removed for clarity. c, Heatmap and hierarchical clustering of efficacy for 8
drugs in 15 pathways and 4 cellular compartments. Data are represented as z-scores.

[2] = molecular target: kinase substrates (Kinase Library); assay: Kinase substrate enrichment analysis of regulated phosphopeptides; design: species or system human; conditions: 1 μM
Procedure: All further data processing was performed in R (version 4.2.1). Only phosphopeptides with a localization score of at least 0.75 were considered for further analysis. Peptides quantified with different charge states were aggregated and only phosphopeptides with at least 2 quantifications for each time point, treatment and replicate were kept. Intensities were normalized by median centering and log2-scaling. Missing values were imputed by k-NN imputation. All statistical comparisons were performed based on homoscedastic two-tailed Student’s t-tests. For the kinase substrate enrichment analysis, the Kinase Library online analytical tool[73] was used with predetermined foreground and background sets based on previously determined significance thresholds (P < 0.05; log2 fold change >1). All remaining settings were left as default.

[3] = system: GLP-1R-expressing HEK293 cells (phosphoproteome); assay: Phosphoproteomics, GLP-1R-transfected cells, 30 min (experiment 2); assay type: cell-based, human; conditions: GLP transfection, 1 μM
Procedure: P values were calculated by a two-sided unpaired t-test.
HEK293 cells (350,000 cells/mL) were transfected in suspension using 3 μg of linear PEI (MW 25,000) per 1 μg of plasmid DNA and seeded onto poly-D-lysine-coated 60 mm dishes at a density of 1,750,000 cells per dish. After a 24-h incubation, cells were washed twice with PBS and placed in starvation media (DMEM with penicillin/streptomycin). After a 48-h incubation, cells were washed twice with HBSS and maintained in the same buffer. […] Cell extracts were prepared as previously described[64]–[66]. In short, 200 μL of the lysis buffer preheated at 95 °C (4% sodium dodecyl sulfate in 50 mM Tris adjusted to pH 8.5) was added to the cells. The samples were then denatured at 95 °C for 10 min, placed on ice and then sonicated using a probe sonicator (3 sec on, 3 sec off pulse, 1 min, 30% amplitude) (Branson). Lysate protein concentration was determined using the Pierce bicinchoninic acid assay kit (Thermo Fisher Scientific) according to the manufacturer’s instructions. The lysates were reduced using 5 mM dithiothreitol for 1 h at room temperature and alkylated using 15 mM iodoacetamide for 1 h at room temperature in the dark. Proteins were precipitated and digested on beads using MagReSyn Amine magnetic beads (ReSyn Biosciences) according to the manufacturer’s instructions. Protein digestion was conducted overnight at 37 °C with lysyl endopeptidase (LysC, Wako) (1:150 LysC/protein, w/w) and trypsin (1:300 trypsin/protein, w/w). 20% TFA, 2 M glycolic acid in 80% ACN were added to the samples at a 1:1 ratio for phosphopeptide enrichment using MagReSyn TiO2 magnetic beads (ReSyn Biosciences) according to the manufacturer’s instructions. The enriched phosphopeptides were dried overnight in a SpeedVac, resuspended into 5% formic acid (FA), desalted using StageTip (Thermo Fisher Scientific) according to the manufacturer’s instructions and dried in a SpeedVac. The experiment was performed in biological triplicates.
All parameters and settings regarding the acquisition of the proteomics data can be found in Supplementary Data 11, 12. For data acquisition, the instrument was set to peptide mode, with a trapping pressure set as low (2mTorr). An EASY-Spray Source (Thermo Fisher Scientific) was used and the column temperature was maintained with the integrated, temperature-controlled heater at 55 °C throughout the experiment. For the data presented in Fig. 5d, the column was heated at 50 °C following the manufacturer’s instructions (IonOpticks).
Acquired raw files were converted to mzML format by MSConvert (version 3.0.21258)[67] applying peak picking of the mass spectra with the vendor-provided algorithm (Thermo Fisher Scientific). The mzML files were analyzed using the FragPipe GUI v18 for both library and DIA search. […] Trypsin with up to 2 missed cleavages was set as digestion enzyme, oxidation of methionine, acetylation of the N-terminus and phosphorylation on serine, threonine and tyrosine (maximal occurrence was set to three) were set as variable modifications. Carbamidomethylation of cysteine residues was set as a fixed modification. Peptide length was restricted to 7 to 50 amino acids, and 500 to 5000 Da. […] DIA files were analyzed by DIA-NN 1.8.1[71], [72] using the previously generated library and monitor-command mode. Peptide quantification was performed based on the fragment elution profiles from the MS2 level (area under the curve). […]

GLP-1R [4] = molecular target: T1, GLP-1R; assay: ebBRET pathway activation (15 pathways) at the endoplasmic reticulum (tdrGFP-PTP1B); assay type: cell-based; conditions: for Emax: Endoplasmic reticulum; for Efficacy (normalized) / Potency (logEC50): endoplasmic reticulum
Procedure: Subcellular resolution was achieved by using organelle-specific energy acceptors for early endosomes, the Golgi apparatus and the endoplasmic reticulum.
Data are represented as the mean ± SEM (n = 3 biologically independent experiments). EE early endosomes, GA Golgi apparatus, ER endoplasmic reticulum.
HEK293 cells were cultured in DMEM supplemented with 10% FBS, 1% penicillin/streptomycin, propagated in plastic flasks and grown at 37 °C in 5% CO2 and 90% humidity. […] After a 48-hour incubation, cells were washed once with HBSS and maintained in the same buffer.
Best fit values were excluded if EC50 was outside of the concentration range tested or if the span was negative. […] All further data processing was performed in R (version 4.2.1).
Pharmacological characterization of GLP-1R agonist signaling
profiles at the endoplasmic reticulum. a, Illustration depicting the ebBRET approach to
monitoring signaling at the endoplasmic reticulum. b, Concentration-response curves of GLP-1R
agonists across 15 pathways at the endoplasmic reticulum using tdrGFP-P TP1B. Data are
represented by the non-linear fit and sc aled according to the highest responding drug (n=3
biologically independent samples). Drug-s pecific polar area diagrams for efficacy (normalized
endoplasmic reticulum. Drugs were deemed to activate a given pathway after comparing
the top and bottom parameters from non-linear regression by one-sided extra sum-o f-
similarity index for efficacy (e) and potency (f) quantifies similarities and differences across drug
Drug- induced transducer engagement by GLP-1R at the
endoplasmic reticulum. Agonist concentration response curves for 15 transducers at the
endoplasmic reticulum. Drugs were deemed to activate a given pathway after comparing the top
and bottom parameters from non-linear regres sion by one-sided extra s um-o f-s quares F-t est
Data are represented as the
mean ± SEM (n=3 biologically independent samples). Sigmoidal dose-r esponse curves are
Polar area diagrams depict pathway activation at the endoplasmic
reticulum. Pathway-specific polar area diagrams for efficacy (normalized to the highest
were deemed to activate a given pathway after comparing the top and bottom parameters from
non-linear regression by one-sided extra sum-o f-s quares F-t est followed by Bonferroni

T1 sequence (P43220 24-463): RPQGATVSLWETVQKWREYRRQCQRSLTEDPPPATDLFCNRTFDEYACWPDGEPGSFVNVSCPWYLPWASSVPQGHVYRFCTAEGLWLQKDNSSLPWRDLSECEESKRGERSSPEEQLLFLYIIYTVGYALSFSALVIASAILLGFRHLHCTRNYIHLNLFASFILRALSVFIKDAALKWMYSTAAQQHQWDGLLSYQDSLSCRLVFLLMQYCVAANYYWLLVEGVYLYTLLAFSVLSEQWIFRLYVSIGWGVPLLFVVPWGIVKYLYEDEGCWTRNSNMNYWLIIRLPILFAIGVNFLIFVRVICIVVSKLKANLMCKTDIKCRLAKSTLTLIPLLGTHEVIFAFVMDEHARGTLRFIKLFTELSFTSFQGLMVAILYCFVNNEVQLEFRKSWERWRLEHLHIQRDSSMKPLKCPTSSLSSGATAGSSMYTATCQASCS

SMILES: N#Cc1ccc(COc2cccc(C3CCN(Cc4nc5ccc(C(=O)O)cc5n4C[C@@H]4CCO4)CC3)n2)c(F)c1 [Danuglipron]
- z-scores (GLP-1R [1]): -0.3536
- drug cluster (hierarchical / k-means) (GLP-1R [1]; efficacy and potency, 15 pathways, 4 compartments): 4
- defining cluster features, in words (GLP-1R [1]; k-means cluster centers): endoplasmic reticulum-localized recruitment of mGs and decreased recruitment of βARR at the plasma membrane
- kinase kinetics, in words [2]: distinctly different kinetics
- dominant_enrichment_value_log2, NUAK2 ([2]; 15min, log10 abs adjusted p 0.784095): 1.911
- dominant_enrichment_value_log2, PKACA ([2]; 15min, log10 abs adjusted p 0.96096): 2.68
- dominant_enrichment_value_log2, PRKD3 ([2]; 15min, log10 abs adjusted p 1.61335): 3.823
- dominant_enrichment_value_log2, PRKD2 ([2]; 15min, log10 abs adjusted p 1.89437): 2.877
- dominant_enrichment_value_log2, SIK ([2]; 15min, log10 abs adjusted p 3.68823): 3.799
- log2.foldchange, PABPN1 S19 ([3]; vs time-matched vehicle, p […], n = 3): 1.128
- log2.foldchange, VPS51 S13 ([3]; vs vehicle, p 0.15884, n = 3): -0.5399
- log2.foldchange, EIF3J S20 ([3]; vs vehicle, p 0.656982, n = 3): -0.08041
- log2.foldchange, EIF3J S11 ([3]; vs vehicle, p 0.693473, n = 3): -0.5463
- log2.foldchange, VPS51 S18 ([3]; vs vehicle, p 0.842243, n = 3): 0.02396
- Emax (GLP-1R [4]; GRK/Gβγ): 0.1421
- Emax (GLP-1R [4]; Gα11): 0
- Emax (GLP-1R [4]; Gα12): 0
- Emax (GLP-1R [4]; Gα13): 0
- Emax (GLP-1R [4]; Gα14): 0
- Emax (GLP-1R [4]; Gα15): 0
- Emax (GLP-1R [4]; Gαi1): 0
- Emax (GLP-1R [4]; Gαi2): 0
- Emax (GLP-1R [4]; Gαi3): 0
- Emax (GLP-1R [4]; GαoA): 0
- Emax (GLP-1R [4]; GαoB): 0
- Emax (GLP-1R [4]; Gαq): 0
- Emax (GLP-1R [4]; Gαs): 0.2391
- Emax (GLP-1R [4]; Gαz): 0
- Emax (GLP-1R [4]; βARR): 0.08276
- mGs recruitment at the endoplasmic reticulum, in words (GLP-1R [4]; Rluc8-mGs, tdrGFP-PTP1B, 60 min, n = 3): the only drug capable of recruiting mGs to the endoplasmic reticulum
- Efficacy (normalized) (GLP-1R [4]; GRK2/Gβγ, Supplementary Fig. 15c): 0.6257
- Efficacy (normalized) (GLP-1R [4]; Gα11, Supplementary Fig. 15c): 0
- Potency (logEC50) (GLP-1R [4]; Gα11, Supplementary Fig. 15d): 0
- Efficacy (normalized) (GLP-1R [4]; Gα12, Supplementary Fig. 15c): 0
- Potency (logEC50) (GLP-1R [4]; Gα12, Supplementary Fig. 15d): 0
- Efficacy (normalized) (GLP-1R [4]; Gα13, Supplementary Fig. 15c): 0
- Potency (logEC50) (GLP-1R [4]; Gα13, Supplementary Fig. 15d): 0
- Efficacy (normalized) (GLP-1R [4]; Gα14, Supplementary Fig. 15c): 0
- Potency (logEC50) (GLP-1R [4]; Gα14, Supplementary Fig. 15d): 0
- Efficacy (normalized) (GLP-1R [4]; Gα15, Supplementary Fig. 15c): 0
- Potency (logEC50) (GLP-1R [4]; Gα15, Supplementary Fig. 15d): 0
- Efficacy (normalized) (GLP-1R [4]; Gαi1, Supplementary Fig. 15c): 0
- Potency (logEC50) (GLP-1R [4]; Gαi1, Supplementary Fig. 15d): 0
- Efficacy (normalized) (GLP-1R [4]; Gαi2, Supplementary Fig. 15c): 0
- Potency (logEC50) (GLP-1R [4]; Gαi2, Supplementary Fig. 15d): 0
- Efficacy (normalized) (GLP-1R [4]; Gαi3, Supplementary Fig. 15c): 0
- Potency (logEC50) (GLP-1R [4]; Gαi3, Supplementary Fig. 15d): 0
- Efficacy (normalized) (GLP-1R [4]; GαoA, Supplementary Fig. 15c): 0
- Potency (logEC50) (GLP-1R [4]; GαoA, Supplementary Fig. 15d): 0
- Efficacy (normalized) (GLP-1R [4]; GαoB, Supplementary Fig. 15c): 0
- Potency (logEC50) (GLP-1R [4]; GαoB, Supplementary Fig. 15d): 0
- Efficacy (normalized) (GLP-1R [4]; Gαq, Supplementary Fig. 15c): 0
- Potency (logEC50) (GLP-1R [4]; Gαq, Supplementary Fig. 15d): 0
- Efficacy (normalized) (GLP-1R [4]; Gαs, Supplementary Fig. 15c): 1
- Potency (logEC50) (GLP-1R [4]; Gαs, Supplementary Fig. 15d): 0.2956
- Efficacy (normalized) (GLP-1R [4]; Gαz, Supplementary Fig. 15c): 0
- Potency (logEC50) (GLP-1R [4]; Gαz, Supplementary Fig. 15d): 0
- Efficacy (normalized) (GLP-1R [4]; βARR2, Supplementary Fig. 15c): 0.2909
- Potency (logEC50) (GLP-1R [4]; βARR2, Supplementary Fig. 15d): 0.3992

Source: article PMC10562414, “GLP-1R signaling neighborhoods associate with the susceptibility to adverse drug reactions of incretin mimetics” (Nature Communications, 2023)
